Measured values taken from patent publication US20130102562A1, “INHIBITION OF CATHEPSIN K ACTIVITY AND THE TREATMENT AND PREVENTION OF DISEASE” (SYLVAN PHARMACEUTICALS PTY LTD., priority 2006, published 2013).

T1: Cathepsin K (Homo sapiens, UniProt P43235)
T1 sequence (P43235 115-329): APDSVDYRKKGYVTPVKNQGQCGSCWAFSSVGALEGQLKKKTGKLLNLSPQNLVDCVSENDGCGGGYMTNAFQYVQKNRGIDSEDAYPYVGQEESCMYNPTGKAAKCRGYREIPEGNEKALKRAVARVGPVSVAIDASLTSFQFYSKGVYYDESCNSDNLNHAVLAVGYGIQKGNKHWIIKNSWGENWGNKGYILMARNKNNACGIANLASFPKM

B1: RANKL: Receptor Activator NFKB Ligand; stimulates RAW 264.7 cells to generate bone pit resorptive osteoclasts (protein, UniProt O35235 139-316, looked up)
Tumor necrosis factor ligand …: FSGAPAMMEGSWLDVAQRGKPEAQPFAHLTINAASIPSGSHKVTLSSWYHDRGWAKISNMTLSNGKLRVNQDGFYYLYANICFRHHETSGSVPTDYLQLMVYVVKTSIKIPSSHNLMKGGSTKNWSGNSEFHFYSINVGGFFKLRAGEEISIQVSNPSLLDPDQDATYFGAFKVQDID

Columns and labels:
Cathepsin K = target: T1, Cathepsin K; assay: Cathepsin K bone collagen digests (release of bone collagen, hydroxyproline); format: biochemical; settings: overall conclusion; Cathepsin K mediated release of bone collagen (FIG. 1)
Description: Fresh ovine bone was milled in a stainless steel mortar and pestle in liquid nitrogen. The resultant bone powder was defatted, decalcified and freeze-dried before storage at 4° C.
(ii) Cathepsin K Bone Collagen Digests • 2 mg of insoluble bone collagen powder was digested in 100 mM sodium acetate pH 5.5 containing 2.5 mM dithiothreitol and 2.5 mM EDTA with […] Cathepsin K and increasing doses of PPS. • Digestions were incubated at 37° C. for 24 hours and terminated by the addition of 2 μM E84. Residue and supernatant were hydrolysed separately and the hydroxyproline content measured.

[1] = system: Cathepsin K gene expression; assay: Cathepsin K gene expression by RAW 264.7 cells ± RANKL (RT-PCR); format: cell-based, Murine
Description: (§1) (iii) RAW 264.7 Cells • Murine macrophage RAW 264.7 cells respond to Receptor Activator NFKB Ligand (RANKL) stimulation to generate bone pit resorptive osteoclasts. • RAW cells were pre-cultured for several days in High-Glucose Dulbecco's Modified Eagles Medium (HG-DMEM) with 10% Fetal Calf Serum (FCS). • Cells were seeded at 250,000 cells/mL in HG-DMEM/10% FCS with/without 20 mg/mL RANKL and increasing doses of PPS (0-50 μg/mL). • Cells were incubated at 37° C., 5% CO2 for 4 days. • The number of multinucleated cells present in each was counted by two observers at day 2, 3 and 4. The cells were then harvested for RNA extraction and subsequent RT-PCR.

RAW 264.7 cells = assay: Multinucleated (OCL) cell count in RAW 264.7 cell cultures ± RANKL; format: cell-based, Murine
Description: as §1, with “(FCS). • Cells were seeded at 250,000 cells/mL in HG-DMEM/10% FCS with/without 20 mg/mL RANKL and increasing doses of PPS” left out
(iv) H&E Staining • Identical cultures were prepared in petri dishes containing pre-labelled slides and incubated for 4 days, after which slides were carefully rinsed in PBS, immersed in ice-cold acetone and air-dried before freezing. • The slides were then stained with H&E before multinucleated osteoclasts were photographed and counted.

MMP-9 gene expression = assay: MMP9 gene expression by RAW 264.7 cells ± RANKL (RT-PCR); format: cell-based, Murine
Description: as §1

| Molecule | Cathepsin K activity (Cathepsin K) | Cathepsin K gene expression ([1]; day 4, increasing concentrations of CaXPS in the absence of RANKL (FIG. 5A)) | Cathepsin K expression ([1]; day 4, presence of RANKL, lowest dose of CaXPS, p<0.05 (FIG. 5A)) | RANKL-induced multinucleated OCL cell formation (RAW 264.7 cells; day 4, 0.5 μg/mL CaXPS vs absence of CaXPS, p<0.05 (FIG. 4B)) | RANKL-induced formation of true multinucleated (>4 nuclei/cell) OCL cells (RAW 264.7 cells; day 4, 10 μg/mL CaXPS (FIG. 4B)) | RANKL-induced formation of true multinucleated (>4 nuclei/cell) OCL cells (RAW 264.7 cells; day 4, 50 μg/mL CaXPS (FIG. 4B)) | number of cells containing 2-3 nuclei as a percentage total cells (RAW 264.7 cells; day 4, 50 μg/mL CaXPS, in the presence of RANKL, p<0.05 (FIG. 4A)) | number of cells containing 2-3 nuclei as a percentage total cells (RAW 264.7 cells; day 4, − vs + RANKL, at most concentrations of CaXPS (FIG. 4A)) | MMP-9 gene expression (MMP-9 gene expression; day 4, increasing concentrations of CaXPS in the absence of RANKL (FIG. 5B)) | MMP-9 expression (MMP-9 gene expression; day 4, presence of RANKL, 5 μg/mL CaXPS, p<0.05 (FIG. 5B)) | expression of Cathepsin K by RAW cells ([1]; RANKL alone vs no RANKL (FIG. 5A)) | development of multinucleated cells (RAW 264.7 cells; RANKL 20 ng/mL added to RAW cells, by day 3, p<0.05 (FIGS. 2 and 3)) | expression of MMP-9 by RAW cells (MMP-9 gene expression; RANKL alone vs no RANKL (FIG. 5B)) |
| --- | --- | --- | --- | --- | --- | --- | --- | --- | --- | --- | --- | --- | --- |
| calcium xylopyranose polysulfate [CaXPS] | down regulation | no marked effect | significant increase | significantly more | inhibited | inhibited | significantly more 2-3 nucleated cells | still significantly increased | no marked effect | decrease | – | – | – |
| B1 | – | – | – | – | – | – | – | – | – | – | increased | significant development of multinucleated cells | increased |
